Tests used:
[1] = test system: electrically-induced seizures (maximal electroshock seizure threshold); assay: Maximal electroshock seizure (MEST) threshold test, rat model; type: in vivo; conditions: 2 mg/kg p.o., suspension in methyl cellulose, one hour post dosing, statistically significant
Protocol: The maximal electroshock seizure (MEST) threshold test in rodents is particularly sensitive for detecting potential anticonvulsant properties^1. In this model, anticonvulsant agents elevate the threshold to electrically-induced seizures whilst proconvulsants lower the seizure threshold.
Mice (naive male, Charles River, U.K. CD-1 strain, 25-30 g) are randomly assigned to groups of 10-20 and dosed orally or intraperitoneally at a dose volume of 10 ml/kg with various doses of compound (0.3-300 mg/kg) or vehicle. Mice are then subjected at 30 or 60 min post dose to a single electroshock (0.1 sec, 50 Hz, sine wave form) administered via corneal electrodes. The mean current and standard error required to induce a tonic seizure in 50% (CC50) of the mice in a particular treatment group is determined by the `up and down` method of Dixon and Mood (1948)^2. Statistical comparisons between vehicle- and drug-treated groups are made using the method of Litchfield and Wilcoxon (1949)^3.
The threshold for maximal (tonic hindlimb extension) electroshock seizures in male rats (Sprague Dawley, 80-150 g, 6 weeks old) was determined by a Hugo Sachs Electronik stimulator which delivered a constant current (0.3 sec duration; from 1-300 mA in steps of 5-20 mA). […]
The percentage increase or decrease in CC50 for each group compared to the control is calculated. […]

[2] = target: novel receptor obtainable from rat forebrain tissue; assay: [3H]-Compound A radioligand binding assay; conditions: competition with [3H]-Compound A (usually 20 nM)
Protocol: WO 92/22293 (SmithKline Beecham) discloses compounds having anti-convulsantactivity, including inter alia the compound trans-(+)-6-acetyl-4S-(4-fluorobenzoylamino)-3,4-dihydro-2,2-dimethyl-2H-1-benzopyran-3R-ol (hereinafter referred to as Compound A). […] The affinity of test compounds to the novel receptor site is assessed as follows.
Whole forebrain tissue is obtained from rats. The tissue is first homogenised in buffer (usually 50 mM Tris/HCl, pH 7.4). The homogenised tissue is washed by centrifugation and resuspension in the same buffer, then stored at -70° C. until used.
To carry out the radioligand binding assay, aliquots of tissue prepared as above (usually at a concentration of 1-2 mg protein/ml) are mixed with aliquots of [3H]-Compound A dissolved in buffer. The final concentration of [3H]-Compound A in the mixture is usually 20 nM. The mixture is incubated at room temperature for 1 hour. [3H]-Compound A bound to the tissue is then separated from unbound [3H]-Compound A by filtration through Whatman GF/B glass fibre filters. The filters are then washed rapidly with ice-cold buffer. The amount of radioactivity bound to the tissue trapped on the filters is measured by addition of liquid scintillation cocktail to the filters followed by counting in a liquid scintillation counter. […]

- pKi value [2]: greater than 8
SMILES: CN1CCc2ccc(NC(=O)N3CCc4ccccc43)cc2C1 [Example 1, 2,3-Dihydroindole-1-carboxylic Acid (2-methyl-1,2,3,4-tetrahydroisoquinolin-7-yl)amide]
- increase in seizure threshold (CC50) compared to control [1]: 225%
